The text below walks through data of patent EP4810493A1, “HETEROCYCLIC CARBONYL DERIVATIVE MODULATOR, PREPARATION METHOD THEREFOR, AND USE THEREOF” (Shanghai Hansoh Biomedical Co., Ltd., priority 2023, dated 2025).

Like-named read-outs stand apart in the source and are kept apart here.

For series [1] the following is noted: six weeks of dosing, cited from earlier work.
Series [2] is described as follows: Pharmacokinetic determination in SD rats. To be noted: rat, in vivo, po, male SD rats, p.o. 5 mg/kg; for MRT inf: read-out: MRT 0-∞. On the procedure: To investigate the pharmacokinetic behaviours of the example compounds in both plasma and brain of SD rats (test animals) following oral administration at a dose of 5 mg/kg.
(§1) 2.1 Test drugs: The example compounds of the present invention, made in house.
2.2 Test animals: SD Rat, male.
24 SD Rats, male; p.o. respectively at a dose of 5 mg/kg and an administration volume of 10 mL/kg after the rats were fasted overnight.
(§2) Formulation of a drug for oral administration: 0.5% CMC-Na (1% Tween 80).
(§3) 0.50 g of sodium carboxymethyl cellulose (CMC-Na, viscosity: 800-1200 Cps) was weighed and dissolved in 99 mL of purified water, and 1 ml of Tween 80 was added. The components were mixed thoroughly under stirring to form a clear solution.
The example compound was weighed into a 100 mL glass vial, 80 mL of the solution was added, and the mixture was subjected to ultrasound treatment for 10 minutes to obtain a homogeneous suspension with a concentration of 0.5 mg/mL.
(§4) After the test animals were euthanised by CO2, blood samples were collected from the heart and brain tissues were harvested at 0.25 h, 0.5 h, 1 h, 2 h, 4 h, 6 h, 8 h, and 24 h post-dose. Blood was placed in EDTA-2K tubes, and centrifuged at 6000 rpm for 6 min at 4°C to separate the plasma. Brain tissues were rinsed with pre-cold PBS, blotted dry, and weighed. Both plasma and brain samples were stored at -80°C. The animals were fed 4 h after administration.
• 3) 40 uL of plasma sample was precipitated with 160 uL of acetonitrile, mixed, and centrifuged at 3500 × g for 5-20 min. Brain tissues were diluted, homogenised and centrifuged. • 4) 100 uL of the treated supernatant solution was taken for LC/MS/MS analysis to determine the concentration of the test compounds.
(§5) • Liquid phase conditions: Shimadzu LC-20AD pump • Mass spectrometry conditions: AB Sciex API 4000 mass spectrometer • Chromatographic column: Phenomenex Gemiu 5 um C18 50 × 4.6 mm • Mobile phase: solution A: 0.1% formic acid in water, solution B: acetonitrile • Flow rate: 0.8 mL/min • Elution time: 0-4.0 min, with eluents as follows:
(§6) The main pharmacokinetic parameters were calculated using WinNonlin 8.1.

For a further series, the target named is T1, M4 receptor (Homo sapiens, UniProt P08173).
T1 construct: expressed in transfected cells
T1 sequence (P08173 1-479): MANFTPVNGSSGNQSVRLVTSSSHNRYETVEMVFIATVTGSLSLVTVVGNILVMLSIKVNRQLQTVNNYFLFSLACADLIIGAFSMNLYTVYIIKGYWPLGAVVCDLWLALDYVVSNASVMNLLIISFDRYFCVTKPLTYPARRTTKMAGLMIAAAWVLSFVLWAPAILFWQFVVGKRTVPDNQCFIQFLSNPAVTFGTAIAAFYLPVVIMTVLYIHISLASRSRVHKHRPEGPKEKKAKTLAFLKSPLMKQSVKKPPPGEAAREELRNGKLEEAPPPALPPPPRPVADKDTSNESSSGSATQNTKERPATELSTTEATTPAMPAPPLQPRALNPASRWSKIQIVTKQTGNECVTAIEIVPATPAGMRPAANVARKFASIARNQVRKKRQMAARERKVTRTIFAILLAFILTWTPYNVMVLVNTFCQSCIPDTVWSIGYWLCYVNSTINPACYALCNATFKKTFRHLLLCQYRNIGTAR
Put plainly: Calcium flux (FLIPR) potentiation assay in cells stably expressing M4 receptor. The class given is cell-based. The method in brief:
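CHO-K1 cells co-expressing Gα15, loaded with Calcium 6 dye 1 h at room temperature, preincubated 2 min with compound ([…]), then challenged with acetylcholine at EC20. Peak fluorescence expressed as % activation between DMSO and ACh EC100 controls.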
(A change in cytosolic calcium serves as a functional read-out for many receptors and channels.)

Series [3] can be described thus: Pharmacokinetic determination in Balb/c mice. To be noted: mouse, in vivo, po, male Balb/c mice, p.o. 5 mg/kg; for MRT inf: read-out: MRT 0-∞. On the procedure: To investigate the pharmacokinetic behaviours of the example compounds in both plasma and brain of Balb/c mice (test animals) following oral administration at a dose of 5 mg/kg.
as §1
2.2 Test animals: Balb/c Mouse, male.
24 Balb/c mice, male; p.o. respectively at a dose of 5 mg/kg and an administration volume of 10 mL/kg after the mice were fasted overnight.
as §2, §3
The example compound was weighed into a 4-mL glass vial, 2.4 mL of the solution was added, and the mixture was subjected to ultrasound treatment for 10 minutes to obtain a homogeneous suspension with a concentration of 0.5 mg/mL.
as §4
• 1) 40 uL of plasma sample was precipitated with 160 uL of acetonitrile, mixed, and centrifuged at 3500 × g for 5-20 min. Brain tissues were diluted, homogenised and centrifuged. • 2) 100 uL of the treated supernatant solution was taken for LC/MS/MS analysis to determine the concentration of the test compounds.
as §5, §6

The conditions of series [4]: in vivo; cited from earlier work.
Where [5] appears, read: CHO-K1/M4/Gα15 cells, potentiation of acetylcholine (EC20) calcium flux, read-out: M4 FLIPR EC50.

With `Cc1cc(C)c2c(n1)CN(C(=O)CC1CN(c3ccnc(C(F)(F)F)c3)C1)C2` [CVL-231], the “mean reduction in the Positive and Negative Syndrome Scale (PANSS) total score from baseline” value is given as 17.9 points in series [1] (20 mg twice daily) and 19.5 points in series [1] (30 mg once daily).

In general, AUC(0-inf) refers to total exposure, with the tail of the curve extrapolated. Low values mean low exposure, high ones high exposure. The term Cmax denotes the highest concentration seen after dosing. What is called Tmax is the time from dosing to the highest level. For orientation: EC50 means the concentration at which the effect is half-maximal. As to `Cc1c2c(c3ncnn3c1C)CN(C(=O)OC1CN(c3ccnc(C(F)(F)F)c3)C1)C2` [Example 32, 1-(2-(Trifluoromethyl)pyridin-4-yl)azetidin-3-yl 5,6-dimethyl-7,9-dihydro-8H-pyrrolo[3,4-c][1,2,4]triazolo[1,5-a]pyridine-8-carboxylate], in series [2], the AUC(0-inf) is 17500 ng·h/mL, the Cmax was determined as 4520 ng/mL, the Tmax is 2 h and the MRT inf was 2.7 h. Moreover, at M4 receptor (setting [5]), the EC50 amounted to 72.4 nM. Also, in series [3], the AUC(0-inf) came to 7370 ng·h/mL, the highest level (Cmax) was 2560 ng/mL, the Tmax is 0.5 h and the MRT inf turned out to be 2.5 h.

`Cc1c2c(c3ncnn3c1C)CN(C(=O)CC1CN(c3ccnc(OC(F)F)c3)C1)C2` [Example 52]: in series [2], the AUC(0-inf) came out at 10800 ng·h/mL, the Cmax came out at 2450 ng/mL, the Tmax was found to be 2 h and the MRT inf is 2.6 h. The EC50 on M4 receptor (setting [5]) is 13.9 nM. In series [3], the AUC(0-inf) was determined as 2540 ng·h/mL, the Cmax amounted to 1950 ng/mL, the time of peak concentration (Tmax) stood at 0.25 h and the MRT inf worked out at 1.2 h.

With `Cc1cn2nc(N3CC(OC(=O)N4Cc5c(C)c(C)n6ncnc6c5C4)C3)ccc2n1` [Example 105], in series [2], the AUC(0-inf) is 16300 ng·h/mL, the Cmax was 2680 ng/mL, the Tmax was found to be 1 h and the MRT inf was determined as 4.3 h. Also, on M4 receptor, the EC50 was found to be 19.9 nM. In addition, in series [3], the AUC(0-inf) turned out to be 10200 ng·h/mL, the Cmax amounted to 1570 ng/mL, the Tmax was 0.5 h and the MRT inf is 4.3 h.

Turning to `Cc1c2c(c3ncnn3c1C)CN(C(=O)OC1CN(c3ccnc(C(F)F)c3)C1)C2` [Example 122], in series [2], the AUC(0-inf) came to 34800 ng·h/mL, the Cmax was 3110 ng/mL, the Tmax amounted to 2 h and the MRT inf was determined as 5.8 h. In addition, in series [3], the AUC(0-inf) was determined as 6130 ng·h/mL, the Cmax was 1550 ng/mL, the Tmax is 0.5 h and the MRT inf was found to be 2.6 h.

As for `Cc1c2c(c3ncnn3c1C)CN(C(=O)OC1CN(c3ccnc(OC(F)F)c3)C1)C2` [Example 123], in series [2], the AUC(0-inf) was 12200 ng·h/mL, the Cmax worked out at 2530 ng/mL, the Tmax was determined as 2 h and the MRT inf came to 3.5 h. Also, in series [3], the AUC(0-inf) is 4160 ng·h/mL, the peak level (Cmax) was 1040 ng/mL, the Tmax was 0.5 h and the MRT inf worked out at 3.8 h.

Regarding `Cc1c2c(c3ncnn3c1C)CN(C(=O)CC1CN(c3ncc(C(F)(F)F)cn3)C1)C2` [Example 144, 1-(5,6-Dimethyl-7,9-dihydro-8H-pyrrolo[3,4-c][1,2,4]triazolo[1,5-a]pyridin-8-yl)-2-(1-(5-(trifluoromethyl)pyrimidin-2-yl)azetidin-3-yl)ethan-1-one], in series [2], the AUC(0-inf) was 11000 ng·h/mL, the Cmax was determined as 1710 ng/mL, the Tmax was 2 h and the MRT inf was 4.6 h. The EC50 at M4 receptor (setting [5]) was 85.8 nM. For the same compound, in series [3], the area under the curve AUC(0-inf) was 4790 ng·h/mL, the Cmax was determined as 1890 ng/mL, the Tmax was found to be 0.5 h and the MRT inf was found to be 1.4 h.

Turning to `Cc1nnc2sc(C(=O)NCc3ccc(S(=O)(=O)C(F)(F)F)cc3)c(N)c2c1C` [VU0467154], the “learning deficits induced by the NMDA receptor antagonist MK-801” value in series [4] is “improved learning deficits”.
